Experimental findings from patent US8129398B2 (priority 2008, dated 2012) are described below.

Assay [1] addresses T1, HIV-integrase (Human immunodeficiency virus type 1 group M subtype B, UniProt P12497).
T1 construct: Recombinant integrase (0.26 ng) was incubated with the beads
In words: HIV-Integrase Inhibition Activity (SPA bead integration assay with P33 labeled target DNA). Type of assay: biochemical. To be noted: for IC50: recombinant integrase, class symbols, read-out: in vitro activity; for Ki: representative compounds. The essentials:
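Strand integration read as bead-proximity CPM after P33 target DNA (0.1 fmol) and inhibitor were added to washed integrase–substrate DNA complexes on SPA beads. Enzyme bound 90 min at 37° C; EDTA (10 mM final) terminated reaction; IC50 graded A/B/C.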

In assay [2] the test system is recombinant NL-Rluc virus. Nature of the assay: Inhibition of HIV replication (recombinant NL-Rluc virus, Renilla luciferase reporter). The class given is cell-based. For orientation: A reporter such as luciferase makes a cellular process visible.

Where two headings read alike, the source gives them in different places.

Turning to `Cc1cc(CNC(=O)c2nc3n(c(=O)c2O)CC2CCC3(NS(=O)(=O)CC3CC3)CC2)ccc1F` [Example 306, 7,10-Ethanopyrimido[1,2-a]azepine-2-carboxamide, 10-[[(cyclopropylmethyl)sulfonyl]amino]-N-[(4-fluoro-3-methylphenyl)methyl]-4,6,7,8,9,10-hexahydro-3-hydroxy-4-oxo-], in assay [1], the IC50 was greater than 100 nM and the inhibitory constant (Ki) (usually a measure of affinity in units of concentration, obtained from inhibition or displacement) worked out at 860 nM. Also, in assay [2] (Human immunodeficiency virus 1), the EC50 is 385 nM.
Consider `CN(C)C(=O)C(=O)NC12CCC(Cn3c1nc(C(=O)NCc1ccc(F)cc1)c(O)c3=O)C2` (single isomer, unassigned) [Example 412, Ethanediamide, N′-[2-[[[(4-fluorophenyl)methyl]amino]carbonyl]-6,7,8,9-tetrahydro-3-hydroxy-4-oxo-7,11-methanopyrimido[1,2-a]azepin-10(4H)-yl]-N,N-dimethyl-], for which, in assay [1], the IC50 was less than 10 nM. In addition, the EC50 in assay [2] (read-out: Antiviral activity, NL-Rluc virus, serum condition not specified (10% FBS, 15 mg/ml human serum albumin/10% FBS or 40% human serum/5% FBS), class symbols) was less than 10 nM.
Turning to `O=C(NCc1ccc(F)cc1)c1nc2n(c(=O)c1O)CC1CCC2(NS(=O)(=O)C2CC2)CC1` [Example 41, 10-((Cyclopropylsulfonyl)amino)-N-(4-fluorobenzyl)-3-hydroxy-4-oxo-4,6,7,8,9,10-hexahydro-7,10-ethanopyrimido[1,2-a]azepine-2-carboxamide], in assay [1], the IC50 is less than 10 nM and affinity was put at a Ki of 1 nM. The EC50 in assay [2] (Human immunodeficiency virus 1) was less than 1 nM.
The matching figures for `COc1ccc(CNC(=O)c2nc3n(c(=O)c2O)CC2CCC3(NC(=O)C(=O)N(C)C)CC2)c(OC)c1` [Example 382]: 10 to 100 nM, 11 nM and 16 nM.
The matching figures for `CN(C)C(=O)C(=O)NC12CCC(CC1)Cn1c2nc(C(=O)N[C@H]2C[C@@H]2c2ccccc2)c(O)c1=O` [Example 357]: less than 10 nM, 9 nM and 6 nM.
